The subject of assay [1] is T-47D cells. Nature of the assay: Caspase cascade activation / induction of apoptosis in T-47D cells (fluorogenic N-(Ac-DEVD)-N'-ethoxycarbonyl-R110 substrate). It is filed as cell-based, human. The settings on record: Homo sapiens, T47D.
Assay [2] relates to T-47D cells. Kind of assay: Inhibition of cell proliferation (GI50), CellTiter-Glo, T-47D. Type of assay: cell-based. The settings on record: Homo sapiens, T47D, 48 h. As for the experimental part:
(§1) T-47D, DLD, H1299, MX-1 and SW620 cells were grown and harvested as in Example 262. […] An aliquot of 45 μL of cells was added to a well of a 96-well microtiter plate containing 5 μL of a 10% DMSO in RPMI-1640 media solution without compound as the control sample for maximal cell proliferation (Lmax). The samples were mixed by agitation and then incubated at 37° C. for 48 h in a 5% CO2—95% humidity incubator. After incubation, the samples were removed from the incubator and 25 μL of CellTiter-Glo™ reagent (Promega) was added. The samples were mixed by agitation and incubated at room temeperature for 10-15 min. Plates were then read using a luminescent plate reader (Model SPECTRAfluor Plus, Tecan) to give Ltest values.
(§2) The samples were mixed by agitation and then incubated at 37° C. for 0.5 h in a 5% CO2—95% humidity incubator. After incubation, the samples were removed from the incubator and 25 μL of CellTiter-Glo™ reagent (Promega) was added. The samples were mixed by agitation and incubated at 37° C. for 10-15 min at room temperature in a 5% CO2—95% humidity incubator. Fluorescence was read as above, (LStart) defining luminescence for initial cell number used as baseline in GI50 determinations.

In the next assay the test system is DLD cells. Nature of the assay: Inhibition of cell proliferation (GI50), CellTiter-Glo, DLD. It is filed as cell-based. As to conditions: Homo sapiens, 48 h. As for the experimental part:
as §1, §2

The test system of another assay is H1299 cells. Nature of the assay: Inhibition of cell proliferation (GI50), CellTiter-Glo, H1299. Type of assay: cell-based. The settings on record: Homo sapiens, NCI-H1299, 48 h. As for the experimental part:
as §1, §2

A further assay concerns MX-1 cells. Nature of the assay: Inhibition of cell proliferation (GI50), CellTiter-Glo, MX-1. The settings on record: Homo sapiens, MX1, 48 h. Type of assay: cell-based. As for the experimental part:
as §1, §2

For the next assay, the system named is SW620 cells. Nature of the assay: Inhibition of cell proliferation (GI50), CellTiter-Glo, SW620. It is filed as cell-based. The settings on record: Homo sapiens, SW-620, 48 h. As for the experimental part:
as §1, §2

The target of a further assay is tubulin (Bos taurus, UniProt P81947+Q6B856). Nature of the assay: Inhibition of tubulin polymerization (DAPI fluorescence). It is filed as biochemical. The settings on record: MAP-rich tubulin, 30 minutes at 37° C. As for the experimental part: Lyophilized tubulin (Cytoskeleton #ML113, 1 mg, MAP-rich) was assayed for the effect of the test compound on tubulin polymerization as measured by change in fluorescence for 4′,6-diamidino-2-phenylindole (DAPI) (Barron, D. M. et al. Analytical Biochem., 2003, 315, 49-56). 1 μl of serial dilutions of each test compound (from 100×DMSO stock) was added in 96 well plate format and preincubated for 30 minutes with 94 ul of the non-GTP supplemented tubulin supernatant. 5 μl of DAPI/GTP solution was added to initiate polymerization and incubated for 30 minutes at 37° C. Fluorescence was read with excitation 350 nm, emission wavelength 485 nm on a Tecan Spectraflour Plus. Polymerized tubulin (DMSO and with the tubulin stabilizer Taxol® (paclitaxel)) gives a higher DAPI fluorescence as compared to non-polymerized tubulin (vinblastine and colchicine used to determine baseline).
Sequence of tubulin (P81947 whole entry): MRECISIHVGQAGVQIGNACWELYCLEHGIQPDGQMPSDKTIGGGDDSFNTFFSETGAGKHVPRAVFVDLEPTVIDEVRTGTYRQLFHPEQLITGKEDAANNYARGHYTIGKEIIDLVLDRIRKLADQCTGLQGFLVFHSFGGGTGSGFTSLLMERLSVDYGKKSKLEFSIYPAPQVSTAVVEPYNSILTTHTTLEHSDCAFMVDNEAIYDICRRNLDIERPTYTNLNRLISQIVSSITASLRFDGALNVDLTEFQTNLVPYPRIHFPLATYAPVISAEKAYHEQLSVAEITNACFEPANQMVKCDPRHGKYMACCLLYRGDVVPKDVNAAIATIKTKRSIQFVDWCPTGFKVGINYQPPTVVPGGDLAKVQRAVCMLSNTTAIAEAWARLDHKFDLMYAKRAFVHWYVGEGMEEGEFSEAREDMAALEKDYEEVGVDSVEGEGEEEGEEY
Sequence of tubulin (Q6B856 whole entry): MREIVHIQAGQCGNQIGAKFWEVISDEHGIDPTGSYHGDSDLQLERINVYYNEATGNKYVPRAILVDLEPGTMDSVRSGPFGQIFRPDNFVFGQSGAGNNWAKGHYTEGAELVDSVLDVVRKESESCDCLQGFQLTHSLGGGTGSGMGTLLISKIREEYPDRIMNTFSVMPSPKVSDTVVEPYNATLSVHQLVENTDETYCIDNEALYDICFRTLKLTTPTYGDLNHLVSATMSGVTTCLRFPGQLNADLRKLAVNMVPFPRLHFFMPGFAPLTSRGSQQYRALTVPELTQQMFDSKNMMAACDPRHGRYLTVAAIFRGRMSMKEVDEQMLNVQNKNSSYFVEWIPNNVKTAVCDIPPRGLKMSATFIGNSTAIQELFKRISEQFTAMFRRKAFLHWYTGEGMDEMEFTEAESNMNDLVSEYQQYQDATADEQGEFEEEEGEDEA

For a further assay, the system named is MCF-7 cells. Nature of the assay: Cytotoxicity (ATP-lite cell viability), MCF-7. The settings on record: Homo sapiens, MCF7; MCF-7, 72 hours. It is filed as cell-based. As for the experimental part:
(§3) Cytotoxicity of compounds in multidrug resistant cells can be determined by administering compounds to cell lines that overexpress the multidrug resistance pump MDR-1 and determining the viability of the cell lines.
(§4) NCI-ADR/Res, MCF-7, P388, and P388/ADR cell lines were obtained from American Type Culture Collection (Manassas, Va.) and maintained in RPMI-1640 media supplemented with 10% FCS, 10 units/ml penicillin and streptomycin, 2 mM Glutamax and 1 mM sodium pyruvate (Invitrogen Corporation, Carlsbad, Calif.). For compound testing, cells were plated in 96 well dishes at a concentration of 1.5×10^4 cells/well. Cells were allowed to adhere to the plate overnight and then incubated with compounds at final concentrations ranging from 0.13 nM to 10 uM for 72 hours. Cell viability was then assessed using the ATP-lite reagent (Perkin Elmer, Foster City, Calif.). Plates were read on a Wallac Topcount luminescence reader (Perkin Elmer, Foster City, Calif.) and the results graphed in Prism software (Graphpad Software, Inc., San Diego, Calif.). Non-linear regression with variable slope analysis was performed to obtain IC50 concentration values.
(§5) Example 1 compound, docetaxel, and vinblastine were tested for their ability to kill multidrug resistant cells by administering the compounds to NCI-ADR/Res, MCF-7 cells, P388 and P388/ADR cells and determining the viability of the cells.

In another assay the test system is NCI-ADR/Res cells. Nature of the assay: Cytotoxicity (ATP-lite cell viability), MDR-1 over-expressing NCI-ADR/Res. Type of assay: cell-based. As to conditions: Homo sapiens, 72 hours. As for the experimental part: as §3, §4, §5
In a further assay the test system is P388 cells. Nature of the assay: Cytotoxicity (ATP-lite cell viability), P388. It is filed as cell-based, murine. As to conditions: Mus musculus; P388, 72 hours. As for the experimental part: as §3, §4, §5
A further assay relates to P388/ADR cells. Kind of assay: Cytotoxicity (ATP-lite cell viability), MDR-1 over-expressing P388/ADR. It is filed as cell-based. As to conditions: Mus musculus, 72 hours. As for the experimental part:
as §3, §4, §5

In a further assay the target is T1, topoisomerase I (Homo sapiens, UniProt P11387).
T1 sequence (P11387 1-765): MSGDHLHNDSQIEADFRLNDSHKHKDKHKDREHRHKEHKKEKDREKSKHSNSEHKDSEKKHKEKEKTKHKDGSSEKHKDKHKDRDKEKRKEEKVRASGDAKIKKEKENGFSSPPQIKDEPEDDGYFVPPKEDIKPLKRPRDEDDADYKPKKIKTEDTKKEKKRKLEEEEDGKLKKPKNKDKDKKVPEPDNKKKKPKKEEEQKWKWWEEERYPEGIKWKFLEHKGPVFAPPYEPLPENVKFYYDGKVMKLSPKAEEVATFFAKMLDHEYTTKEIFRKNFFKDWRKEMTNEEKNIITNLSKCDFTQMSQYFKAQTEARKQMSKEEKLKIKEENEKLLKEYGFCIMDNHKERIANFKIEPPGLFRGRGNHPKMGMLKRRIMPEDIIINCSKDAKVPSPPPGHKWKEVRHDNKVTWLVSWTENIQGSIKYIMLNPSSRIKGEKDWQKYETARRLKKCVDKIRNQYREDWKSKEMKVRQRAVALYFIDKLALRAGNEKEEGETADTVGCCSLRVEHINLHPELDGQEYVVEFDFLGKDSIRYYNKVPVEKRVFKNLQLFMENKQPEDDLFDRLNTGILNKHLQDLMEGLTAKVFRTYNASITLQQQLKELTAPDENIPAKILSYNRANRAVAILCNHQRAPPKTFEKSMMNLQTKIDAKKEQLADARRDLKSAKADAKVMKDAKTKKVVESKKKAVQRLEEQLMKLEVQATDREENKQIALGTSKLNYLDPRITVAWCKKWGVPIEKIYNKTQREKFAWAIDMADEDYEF
Kind of assay: Topoisomerase I activity assay (relaxation of supercoiled DNA, gel). The settings on record: Form I DNA, varying concentrations, FIG. 2.

For the next assay, the target named is Topoisomerase II (Homo sapiens, UniProt P11388). Kind of assay: Topoisomerase II activity assay (relaxation of supercoiled DNA, gel). The settings on record: 100 μM, pRYG DNA, FIG. 1.
Sequence of Topoisomerase II (P11388 whole entry): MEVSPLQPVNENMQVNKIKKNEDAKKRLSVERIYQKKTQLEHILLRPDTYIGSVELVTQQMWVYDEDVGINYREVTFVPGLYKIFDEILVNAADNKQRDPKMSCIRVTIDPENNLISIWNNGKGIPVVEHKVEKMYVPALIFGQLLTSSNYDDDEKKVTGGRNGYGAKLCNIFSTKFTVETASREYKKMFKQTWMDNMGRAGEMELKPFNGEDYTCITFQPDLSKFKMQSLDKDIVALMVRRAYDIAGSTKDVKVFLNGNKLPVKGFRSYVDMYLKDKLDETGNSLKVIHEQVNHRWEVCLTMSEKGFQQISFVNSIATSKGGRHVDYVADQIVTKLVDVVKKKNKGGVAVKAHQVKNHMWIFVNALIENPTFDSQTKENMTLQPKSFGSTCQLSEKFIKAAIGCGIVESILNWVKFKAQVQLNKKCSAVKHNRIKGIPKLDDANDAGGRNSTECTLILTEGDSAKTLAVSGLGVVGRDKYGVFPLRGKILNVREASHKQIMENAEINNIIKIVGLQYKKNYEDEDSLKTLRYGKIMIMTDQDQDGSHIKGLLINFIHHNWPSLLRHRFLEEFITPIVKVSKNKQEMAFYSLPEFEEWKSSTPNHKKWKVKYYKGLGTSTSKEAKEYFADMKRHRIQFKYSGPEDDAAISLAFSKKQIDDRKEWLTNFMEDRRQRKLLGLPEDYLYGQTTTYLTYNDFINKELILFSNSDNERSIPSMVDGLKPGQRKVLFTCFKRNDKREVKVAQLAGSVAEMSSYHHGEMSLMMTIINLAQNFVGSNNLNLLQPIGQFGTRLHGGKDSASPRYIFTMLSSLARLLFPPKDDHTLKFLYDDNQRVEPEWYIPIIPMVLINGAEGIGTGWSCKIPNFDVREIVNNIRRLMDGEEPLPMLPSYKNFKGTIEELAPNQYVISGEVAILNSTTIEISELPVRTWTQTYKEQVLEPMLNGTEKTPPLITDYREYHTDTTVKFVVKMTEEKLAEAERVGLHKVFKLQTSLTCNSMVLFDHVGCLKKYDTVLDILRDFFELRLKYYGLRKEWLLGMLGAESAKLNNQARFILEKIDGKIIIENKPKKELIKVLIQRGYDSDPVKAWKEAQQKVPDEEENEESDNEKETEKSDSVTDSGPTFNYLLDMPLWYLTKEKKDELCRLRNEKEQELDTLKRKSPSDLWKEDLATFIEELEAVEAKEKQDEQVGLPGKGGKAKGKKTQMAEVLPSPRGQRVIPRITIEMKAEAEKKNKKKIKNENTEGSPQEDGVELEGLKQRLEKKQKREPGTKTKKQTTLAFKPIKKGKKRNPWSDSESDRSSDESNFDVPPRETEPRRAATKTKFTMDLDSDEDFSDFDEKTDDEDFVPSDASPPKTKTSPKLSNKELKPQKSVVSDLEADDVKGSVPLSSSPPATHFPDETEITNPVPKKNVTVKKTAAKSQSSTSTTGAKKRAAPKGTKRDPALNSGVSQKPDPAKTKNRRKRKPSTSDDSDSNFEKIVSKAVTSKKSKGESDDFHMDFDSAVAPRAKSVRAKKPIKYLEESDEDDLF
In assay [3] the target is T2, Human Type II Topoisomerase (p170 Form) (Homo sapiens, UniProt P11388).
T2 construct: purchased TopoGEN, Inc., Columbus, Ohio
T2 sequence (P11388 whole entry): as above
Nature of the assay: Photo-crosslinking of radiolabeled compound to Topoisomerase II (SDS gel, autoradiography). It is filed as binding. As to conditions: 50 nM, 60 minutes at room temperature, UV 254 nm, FIG. 3. As for the experimental part: 30 Units (15 ul) Human Type II Topoisomerase (p170 Form) (from TopoGEN, Inc., Columbus, Ohio) was incubated with 50 nM radiolabeled Example 102 compound for 60 minutes at room temperature.
Radiolabeled Example 102 compound stock is 16.67 uM, 60 Ci/mmol, 1 mCi/ml American Radiolabeled Chemicals, Inc., St. Louis, Mo. Samples were either UV irradiated (+) with a short wavelength UV Source (254 nm) for 10 minutes at a distance of 3.5 cm or not irradiated (−). 8 ul of 5× sample buffer (150 mM Tris, pH 6.8, 50% glycerol, 1% SDS, 50 mM dithiothreitol, 62 mg/ml bromophenol blue) was added to the samples and boiled for 5 minutes. The entire sample was then loaded onto a 6% Tris-Glycine SDS-gel (10 well, 1.5 mm thickness) (Invitrogen, Carlsbad, Calif.). The gel was stained with 1% Coomassie Brilliant Blue in 40% methanol, 7.5% acetic acid for 2 hours then de-stained in several changes of de-stainer (40% methanol, 7.5% acetic acid). The gel was then incubated in Amplify (Amersham, Piscataway, N.J.) for 30 minutes at room temperature and then dried down on Whatman filter paper at 80° C. for 2 hours on a gel dryer. The dried gel was put on Hyperfilm (Amersham) in a film cassette and placed at −80° C. for 5-7 days.

Where two headings read alike, the source gives them in different places.

For the molecule `COc1ccc(N(C)c2nc(Cl)nc3ccccc23)cc1` [Example 1], the concentration for a half-maximal effect (EC50) stood at 2 nM in the assay on T-47D cells [1] (24 h, read-out: T-47D (24 hr) EC50 (nM)) and 2 nM with T-47D cells [1] (read-out: Caspase activation (EC50 nM)). Besides, the GI50 in the assay on T-47D cells [2] was 8 nM; in the assay with DLD cells, 8 nM; with H1299 cells, 6 nM; in the assay with MX-1 cells, 5 nM; in the assay on SW620 cells it was 3 nM. Moreover, the IC50 was less than 500 nM against tubulin; 2.9 nM in the assay with MCF-7 cells; 1.3 nM in the assay on NCI-ADR/Res cells; 1.1 nM in the assay with P388 cells; 2.7 nM with P388/ADR cells. For the same molecule, at topoisomerase I, the “Effect on topoisomerase I-dependent relaxation of supercoiled DNA” value is listed as “no apparent effect on topoisomerase I activity”. In addition, at Topoisomerase II, the “Inhibition of topoisomerase II-dependent relaxation of supercoiled DNA” value is recorded as “inhibition of DNA relaxation is substantial”.
With “Radiolabeled (4-Azido-phenyl)-(2-methyl-quinazolin-4-yl)-methyl-amine [Radiolabeled Example 102 compound]”, the “Binding to Topoisomerase II (crosslink on UV irradiation)” value in assay [3] is “binds sufficiently well to Topoisomerase II to crosslink to the enzyme when photoactivated”.

(Values after patent US20130029942A1, “COMPOUNDS AND THERAPEUTICAL USES THEREOF” (Myrexis, Inc., priority 2003, published 2013).)
